# Measurements published in patent US11000033B2, “Ketone or oxime compound, and herbicide” (NISSAN CHEMICAL CORPORATION, priority 2014, dated 2021).
# How the values were obtained:
# Format in all cases: in vivo
# Monochoria vaginalis = assay: Test Example 2: herbicidal activity, application during weed generation in submerged conditions (symbol C); details: Table 23; application herbicide amount 320 g/ha; grade 0-5 by criteria of Test Example 1
# Outline: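 Weeds emerging under flooded conditions were treated with compound formulated as an emulsion and diluted with water to the intended herbicide amount, poured onto the surface of 4 cm standing water. Seeds had been co-sown in alluvial soil; plants grew at 25° C. to 30° C. and were assessed after 3 weeks.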
# Cyperus difformis = assay: Test Example 3: herbicidal effect by foliage application, Wagner pot (symbol E); details: application herbicide amount 320 g/ha
# Outline: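 Alluvial soil was flooded to a depth of 0.1–0.5 cm, seeded with the weeds and rice, and kept in a greenhouse at 25–30 °C. After 14 days of growth, the foliage received a small-sprayer application of emulsion diluted to the intended rate; injury was rated at 3 weeks.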
# [1] = system: directly sowed rice plant; assay: Test Example 3: effect on crop by foliage application, Wagner pot (symbol b); details: application herbicide amount 320 g/ha
# Outline: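 Greenhouse culture at 25–30 °C of seeded rice, Cyperus difformis, Leptochloa chinensis and Echinochloa crus-galli var. crus-galli, in alluvial soil held under 0.1–0.5 cm of water in a Wagner pot.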
# Setaria viridis = assay: Test Example 4: herbicidal effect by soil treatment (symbol G); details: for G: Setaria viridis, herbicidal effect grade: 320 g/ha; for G (Setaria viridis) herbicidal effect grade: application herbicide amount 320 g/ha
# Outline: (§1)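 Seeds were sown in sterilized diluvial soil, covered with about 1.5 cm of soil, and the soil surface was sprayed with a water-diluted emulsion of the compound at a predetermined rate. Plants grew in a greenhouse at 25° C. to 30° C.; effects were scored visually 3 weeks after application.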
# Apera spica-venti = assay: Test Example 4: herbicidal effect by soil treatment (symbol L); details: for L: Apera spica-venti, herbicidal effect grade: 320 g/ha; for L (Apera spica-venti) herbicidal effect grade: application herbicide amount 320 g/ha
# Outline: as §1
# Abutilon theophrasti = assay: Test Example 4: herbicidal effect by soil treatment (symbol M); details: for M: Abutilon theophrasti, herbicidal effect grade: 320 g/ha; for M (Abutilon theophrasti) herbicidal effect grade: application herbicide amount 320 g/ha
# Outline: as §1
# Amaranthus retroflexus = assay: Test Example 4: herbicidal effect by soil treatment (symbol N); details: for N: Amaranthus retroflexus, herbicidal effect grade: 320 g/ha; for N (Amaranthus retroflexus) herbicidal effect grade: application herbicide amount 320 g/ha
# Outline: as §1
# Stellaria media = assay: Test Example 4: herbicidal effect by soil treatment (symbol P); details: for P: Stellaria media, herbicidal effect grade: 320 g/ha; for P (Stellaria media) herbicidal effect grade: application herbicide amount 320 g/ha
# Outline: as §1
# rice = assay: Test Example 4: effect on crop by soil treatment (symbol b); details: for b: directly sowed rice plant, effect grade on crop: 320 g/ha; for b (directly sowed rice plant) effect on crop grade: application herbicide amount 320 g/ha
# Outline: (§2)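 Soil-treatment setup: crop and weed seeds were spot-sown into sterilized diluvial soil, then buried beneath approximately 1.5 cm of it, and the boxes were housed in a 25–30° C. greenhouse.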
# wheat [2] = assay: Test Example 4: effect on crop by soil treatment (symbol e); details: for e: wheat, effect grade on crop: 320 g/ha; for e (wheat) effect on crop grade: application herbicide amount 320 g/ha
# Outline: as §2
# Digitaria ciliaris = assay: Test Example 5: herbicidal effect by foliage application, plastic box (symbol F); details: 320 g/ha, 3 weeks after application
# Outline: (§3)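 Herbicide, formulated as an emulsion and diluted in water, is sprayed onto the aerial parts of 14-day seedlings. These were grown at 25° C. to 30° C. in sterilized diluvial soil; effects are graded after 3 weeks.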
# Avena fatua = assay: Test Example 5: herbicidal effect by foliage application, plastic box (symbol I); details: 320 g/ha, 3 weeks after application
# Outline: as §3
# Alopecurus myosuroides = assay: Test Example 5: herbicidal effect by foliage application, plastic box (symbol J); details: 320 g/ha, 3 weeks after application
# Outline: as §3
# soybean = assay: Test Example 5: effect on crop by foliage application, plastic box (symbol d); details: 320 g/ha, 3 weeks after application
# Outline: (§4)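 Crop seed is sown alongside grass and broadleaf weed species in spots in sterilized diluvial soil, then covered to a depth of about 1.5 cm. Plants grow in a greenhouse kept at 25° C. to 30° C.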
# wheat [3] = assay: Test Example 5: effect on crop by foliage application, plastic box (symbol e); details: 320 g/ha, 3 weeks after application
# Outline: as §4
# beet = assay: Test Example 5: effect on crop by foliage application, plastic box (symbol f); details: 320 g/ha, 3 weeks after application
# Outline: as §4
SMILES,"Herbicidal effect grade, C: Monochoria vaginalis (Monochoria vaginalis)","herbicidal effect on E, grade 0-5 (Cyperus difformis)","effect on crop b (directly sowed rice plant), grade 0-5 [1]","G: Setaria viridis, herbicidal effect grade (Setaria viridis)","L: Apera spica-venti, herbicidal effect grade (Apera spica-venti)","M: Abutilon theophrasti, herbicidal effect grade (Abutilon theophrasti)","N: Amaranthus retroflexus, herbicidal effect grade (Amaranthus retroflexus)",G (Setaria viridis) herbicidal effect grade (Setaria viridis),L (Apera spica-venti) herbicidal effect grade (Apera spica-venti),M (Abutilon theophrasti) herbicidal effect grade (Abutilon theophrasti),N (Amaranthus retroflexus) herbicidal effect grade (Amaranthus retroflexus),P (Stellaria media) herbicidal effect grade (Stellaria media),b (directly sowed rice plant) effect on crop grade (rice),e (wheat) effect on crop grade (wheat [2]),"F: Digitaria ciliaris, herbicidal effect grade (Digitaria ciliaris)","I: Avena fatua, herbicidal effect grade (Avena fatua)","J: Alopecurus myosuroides, herbicidal effect grade (Alopecurus myosuroides)","d: soybean, effect on crop grade (soybean)","e: wheat, effect on crop grade (wheat [3])","f: beet, effect on crop grade (beet)",also measured
COCC(=O)OC1=C(c2c(C)cc(C)cc2C)C(=O)C(CC(C)=NOC)C1 (centres unmarked) [1-093],3 (Herbicidal ratio of 40% or higher and lower than 70%),5 (Herbicidal ratio of 90% or more (almost completely withered)),5 (Herbicidal ratio of 90% or more (almost completely withered)),5 (Herbicidal ratio of 90% or more (almost completely withered)),5 (Herbicidal ratio of 90% or more (almost completely withered)),4 (Herbicidal ratio of 70% or higher and lower than 90%),3 (Herbicidal ratio of 40% or higher and lower than 70%),,,,,,,,,,,,,,"P: Stellaria media, herbicidal effect grade (Stellaria media): 0 (Herbicidal ratio of 5% or lower (almost no effect)); b: directly sowed rice plant, effect grade on crop (rice): 5 (Herbicidal ratio of 90% or more (almost completely withered)); e: wheat, effect grade on crop (wheat [2]): 4 (Herbicidal ratio of 70% or higher and lower than 90%); F: Digitaria ciliaris, herbicidal effect (criteria 0-5) (Digitaria ciliaris): 5 (Herbicidal ratio of 90% or more (almost completely withered)); I: Avena fatua, herbicidal effect (criteria 0-5) (Avena fatua): 5 (Herbicidal ratio of 90% or more (almost completely withered)); J: Alopecurus myosuroides, herbicidal effect (criteria 0-5) (Alopecurus myosuroides): 5 (Herbicidal ratio of 90% or more (almost completely withered)); d: soybean, effect on crop (criteria 0-5) (soybean): 3 (Herbicidal ratio of 40% or higher and lower than 70%); e: wheat, effect on crop (criteria 0-5) (wheat [3]): 5 (Herbicidal ratio of 90% or more (almost completely withered)); f: beet, effect on crop (criteria 0-5) (beet): 0 (Herbicidal ratio of 5% or lower (almost no effect))"
CC#CC(=O)OC1=C(c2c(C)cc(C)cc2C)C(=O)C(CC(C)=NOC)C1 (centres unmarked) [1-095],1 (Herbicidal ratio of 5% or higher and lower than 20%),5 (Herbicidal ratio of 90% or more (almost completely withered)),5 (Herbicidal ratio of 90% or more (almost completely withered)),5 (Herbicidal ratio of 90% or more (almost completely withered)),5 (Herbicidal ratio of 90% or more (almost completely withered)),4 (Herbicidal ratio of 70% or higher and lower than 90%),4 (Herbicidal ratio of 70% or higher and lower than 90%),,,,,,,,,,,,,,"P: Stellaria media, herbicidal effect grade (Stellaria media): 0 (Herbicidal ratio of 5% or lower (almost no effect)); b: directly sowed rice plant, effect grade on crop (rice): 5 (Herbicidal ratio of 90% or more (almost completely withered)); e: wheat, effect grade on crop (wheat [2]): 4 (Herbicidal ratio of 70% or higher and lower than 90%); F: Digitaria ciliaris, herbicidal effect (criteria 0-5) (Digitaria ciliaris): 5 (Herbicidal ratio of 90% or more (almost completely withered)); I: Avena fatua, herbicidal effect (criteria 0-5) (Avena fatua): 5 (Herbicidal ratio of 90% or more (almost completely withered)); J: Alopecurus myosuroides, herbicidal effect (criteria 0-5) (Alopecurus myosuroides): 5 (Herbicidal ratio of 90% or more (almost completely withered)); d: soybean, effect on crop (criteria 0-5) (soybean): 2 (Herbicidal ratio of 20% or higher and lower than 40%); e: wheat, effect on crop (criteria 0-5) (wheat [3]): 5 (Herbicidal ratio of 90% or more (almost completely withered)); f: beet, effect on crop (criteria 0-5) (beet): 0 (Herbicidal ratio of 5% or lower (almost no effect))"
CON=C(C)CC1CC(OC(=O)COc2ccc(OC)cc2)=C(c2c(C)cc(C)cc2C)C1=O (centres unmarked) [1-069],3 (Herbicidal ratio of 40% or higher and lower than 70%),5 (Herbicidal ratio of 90% or more (almost completely withered)),5 (Herbicidal ratio of 90% or more (almost completely withered)),,,,,4 (Herbicidal ratio of 70% or higher and lower than 90%),5 (Herbicidal ratio of 90% or more (almost completely withered)),4 (Herbicidal ratio of 70% or higher and lower than 90%),4 (Herbicidal ratio of 70% or higher and lower than 90%),0 (Herbicidal ratio of 5% or lower (almost no effect)),5 (Herbicidal ratio of 90% or more (almost completely withered)),4 (Herbicidal ratio of 70% or higher and lower than 90%),5 (Herbicidal ratio of 90% or more (almost completely withered)),5 (Herbicidal ratio of 90% or more (almost completely withered)),5 (Herbicidal ratio of 90% or more (almost completely withered)),4 (Herbicidal ratio of 70% or higher and lower than 90%),5 (Herbicidal ratio of 90% or more (almost completely withered)),1 (Herbicidal ratio of 5% or higher and lower than 20%),
CCCC(CC1CC(O)=C(c2c(C)cc(C)cc2C)C1=O)=NOC (centres unmarked) [1-062],0 (Herbicidal ratio of 5% or lower (almost no effect)),4 (Herbicidal ratio of 70% or higher and lower than 90%),5 (Herbicidal ratio of 90% or more (almost completely withered)),,,,,5 (Herbicidal ratio of 90% or more (almost completely withered)),4 (Herbicidal ratio of 70% or higher and lower than 90%),0 (Herbicidal ratio of 5% or lower (almost no effect)),0 (Herbicidal ratio of 5% or lower (almost no effect)),0 (Herbicidal ratio of 5% or lower (almost no effect)),5 (Herbicidal ratio of 90% or more (almost completely withered)),0 (Herbicidal ratio of 5% or lower (almost no effect)),1 (Herbicidal ratio of 5% or higher and lower than 20%),4 (Herbicidal ratio of 70% or higher and lower than 90%),5 (Herbicidal ratio of 90% or more (almost completely withered)),0 (Herbicidal ratio of 5% or lower (almost no effect)),0 (Herbicidal ratio of 5% or lower (almost no effect)),0 (Herbicidal ratio of 5% or lower (almost no effect)),
CC(CC1CC(O)=C(c2c(C)cc(C)cc2C)C1=O)=NOCC=CCl (centres unmarked) [1-056],4 (Herbicidal ratio of 70% or higher and lower than 90%),5 (Herbicidal ratio of 90% or more (almost completely withered)),5 (Herbicidal ratio of 90% or more (almost completely withered)),,,,,5 (Herbicidal ratio of 90% or more (almost completely withered)),5 (Herbicidal ratio of 90% or more (almost completely withered)),4 (Herbicidal ratio of 70% or higher and lower than 90%),3 (Herbicidal ratio of 40% or higher and lower than 70%),0 (Herbicidal ratio of 5% or lower (almost no effect)),5 (Herbicidal ratio of 90% or more (almost completely withered)),5 (Herbicidal ratio of 90% or more (almost completely withered)),5 (Herbicidal ratio of 90% or more (almost completely withered)),5 (Herbicidal ratio of 90% or more (almost completely withered)),5 (Herbicidal ratio of 90% or more (almost completely withered)),4 (Herbicidal ratio of 70% or higher and lower than 90%),5 (Herbicidal ratio of 90% or more (almost completely withered)),0 (Herbicidal ratio of 5% or lower (almost no effect)),
